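Where inhibition never reached the appropriate level, the endpoint shown equals the highest concentration tested. Otherwise, values were interpolated linearly from a five-concentration, 48-hour dose response in 96-well plates. Here, GI50 denotes the concentration required for 50% inhibition of growth. TGI is the concentration that stops growth completely.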
System: SK-MEL-2 melanoma
Assay: inhibition of tumour cell growth, NCI panel, 48 h

Row | Compound | GI50 | TGI
1 | CN1C(NNC(=O)c2cccnc2)=NS(=O)(=O)c2cc(Cl)ccc21 | > 100 µM | > 100 µM
2 | Nc1c(C(=O)Nc2ccccc2Cl)sc2nc3c(cc12)C(=O)CCC3 | 1.09 µM | > 100 µM
3 | COc1ccc(-c2cc(Nc3ccnc(N4CCOCC4)n3)on2)cc1 | 0.457 µM | 29.5 µM

System: SK-MEL-28 melanoma
Assay: inhibition of tumour cell growth, NCI panel, 48 h

Row | Compound | TGI | GI50
4 | CCCCCCc1cc2cc(C(=O)Nc3ccc(F)cc3)c(=N)oc2cc1O | 43.5 µM | 
5 | CN1C(NNC(=O)c2cccnc2)=NS(=O)(=O)c2cc(Cl)ccc21 | > 100 µM | > 100 µM
6 | Nc1c(C(=O)Nc2ccccc2Cl)sc2nc3c(cc12)C(=O)CCC3 | > 100 µM | 22.4 µM
7 | COc1ccc(-c2cc(Nc3ccnc(N4CCOCC4)n3)on2)cc1 | 19.9 µM | 4.1 µM

System: SK-MEL-5 melanoma
Assay: inhibition of tumour cell growth, NCI panel, 48 h

Row | Compound | TGI | GI50
8 | CCCCCCc1cc2cc(C(=O)Nc3ccc(F)cc3)c(=N)oc2cc1O | 3.28 µM | 
9 | CN1C(NNC(=O)c2cccnc2)=NS(=O)(=O)c2cc(Cl)ccc21 | > 100 µM | > 100 µM
10 | Nc1c(C(=O)Nc2ccccc2Cl)sc2nc3c(cc12)C(=O)CCC3 | > 100 µM | 1.02 µM
11 | COc1ccc(-c2cc(Nc3ccnc(N4CCOCC4)n3)on2)cc1 | 2.07 µM | 0.189 µM

System: SK-OV-3 ovarian
Assay: inhibition of tumour cell growth, NCI panel, 48 h

Row | Compound | TGI | GI50
12 | CCCCCCc1cc2cc(C(=O)Nc3ccc(F)cc3)c(=N)oc2cc1O | 8.09 µM | 
13 | CN1C(NNC(=O)c2cccnc2)=NS(=O)(=O)c2cc(Cl)ccc21 | > 100 µM | > 100 µM
14 | Nc1c(C(=O)Nc2ccccc2Cl)sc2nc3c(cc12)C(=O)CCC3 | > 50.5 µM | 0.782 µM
15 | COc1ccc(-c2cc(Nc3ccnc(N4CCOCC4)n3)on2)cc1 | 22.5 µM | 0.351 µM

System: SN12C renal
Assay: inhibition of tumour cell growth, NCI panel, 48 h

Row | Compound | GI50 | TGI
16 | CN1C(NNC(=O)c2cccnc2)=NS(=O)(=O)c2cc(Cl)ccc21 | > 100 µM | > 100 µM
17 | Nc1c(C(=O)Nc2ccccc2Cl)sc2nc3c(cc12)C(=O)CCC3 | > 100 µM | > 100 µM
18 | COc1ccc(-c2cc(Nc3ccnc(N4CCOCC4)n3)on2)cc1 | 0.7 µM | 16.6 µM

System: SNB-19 CNS
Assay: inhibition of tumour cell growth, NCI panel, 48 h

Row | Compound | TGI | GI50
19 | CCCCCCc1cc2cc(C(=O)Nc3ccc(F)cc3)c(=N)oc2cc1O | 25.3 µM | 
20 | CN1C(NNC(=O)c2cccnc2)=NS(=O)(=O)c2cc(Cl)ccc21 | > 100 µM | > 100 µM
21 | Nc1c(C(=O)Nc2ccccc2Cl)sc2nc3c(cc12)C(=O)CCC3 | > 100 µM | 12.5 µM
22 | COc1ccc(-c2cc(Nc3ccnc(N4CCOCC4)n3)on2)cc1 | 17.6 µM | 0.428 µM

System: SNB-75 CNS
Assay: inhibition of tumour cell growth, NCI panel, 48 h

Row | Compound | GI50 | TGI
23 | CN1C(NNC(=O)c2cccnc2)=NS(=O)(=O)c2cc(Cl)ccc21 | > 100 µM | > 100 µM
24 | Nc1c(C(=O)Nc2ccccc2Cl)sc2nc3c(cc12)C(=O)CCC3 | 2.46 µM | > 84 µM
25 | COc1ccc(-c2cc(Nc3ccnc(N4CCOCC4)n3)on2)cc1 | 0.1 µM | 0.576 µM

System: SR leukemia
Assay: inhibition of tumour cell growth, NCI panel, 48 h

Row | Compound | TGI | GI50
26 | CCCCCCc1cc2cc(C(=O)Nc3ccc(F)cc3)c(=N)oc2cc1O | 8.23 µM | 
27 | CN1C(NNC(=O)c2cccnc2)=NS(=O)(=O)c2cc(Cl)ccc21 | > 100 µM | > 100 µM
28 | Nc1c(C(=O)Nc2ccccc2Cl)sc2nc3c(cc12)C(=O)CCC3 | > 100 µM | 
29 | COc1ccc(-c2cc(Nc3ccnc(N4CCOCC4)n3)on2)cc1 | > 100 µM | 0.0566 µM

System: SW-620 colon
Assay: inhibition of tumour cell growth, NCI panel, 48 h

Row | Compound | TGI | GI50
30 | CCCCCCc1cc2cc(C(=O)Nc3ccc(F)cc3)c(=N)oc2cc1O | > 100 µM | 
31 | CN1C(NNC(=O)c2cccnc2)=NS(=O)(=O)c2cc(Cl)ccc21 | > 100 µM | > 100 µM
32 | Nc1c(C(=O)Nc2ccccc2Cl)sc2nc3c(cc12)C(=O)CCC3 | > 100 µM | 0.556 µM
33 | COc1ccc(-c2cc(Nc3ccnc(N4CCOCC4)n3)on2)cc1 | 18.5 µM | 0.0914 µM

System: T-47D breast
Assay: inhibition of tumour cell growth, NCI panel, 48 h

Row | Compound | GI50 | TGI
34 | CN1C(NNC(=O)c2cccnc2)=NS(=O)(=O)c2cc(Cl)ccc21 | > 100 µM | > 100 µM
35 | Nc1c(C(=O)Nc2ccccc2Cl)sc2nc3c(cc12)C(=O)CCC3 | > 40 µM | > 100 µM
36 | COc1ccc(-c2cc(Nc3ccnc(N4CCOCC4)n3)on2)cc1 | 0.566 µM | 21.6 µM

System: TK-10 renal
Assay: inhibition of tumour cell growth, NCI panel, 48 h

Row | Compound | GI50 | TGI
37 | CN1C(NNC(=O)c2cccnc2)=NS(=O)(=O)c2cc(Cl)ccc21 | > 100 µM | > 100 µM
38 | Nc1c(C(=O)Nc2ccccc2Cl)sc2nc3c(cc12)C(=O)CCC3 | 78.6 µM | > 100 µM
39 | COc1ccc(-c2cc(Nc3ccnc(N4CCOCC4)n3)on2)cc1 | 10.9 µM | 24.9 µM

System: U251 CNS
Assay: inhibition of tumour cell growth, NCI panel, 48 h

Row | Compound | TGI | GI50
40 | CCCCCCc1cc2cc(C(=O)Nc3ccc(F)cc3)c(=N)oc2cc1O | 8.64 µM | 
41 | CN1C(NNC(=O)c2cccnc2)=NS(=O)(=O)c2cc(Cl)ccc21 | > 100 µM | > 100 µM
42 | Nc1c(C(=O)Nc2ccccc2Cl)sc2nc3c(cc12)C(=O)CCC3 | > 100 µM | 4.18 µM
43 | COc1ccc(-c2cc(Nc3ccnc(N4CCOCC4)n3)on2)cc1 | 12.7 µM | 0.329 µM

System: UACC-257 melanoma
Assay: inhibition of tumour cell growth, NCI panel, 48 h

Row | Compound | TGI | GI50
44 | CCCCCCc1cc2cc(C(=O)Nc3ccc(F)cc3)c(=N)oc2cc1O | 29.2 µM | 
45 | CN1C(NNC(=O)c2cccnc2)=NS(=O)(=O)c2cc(Cl)ccc21 | > 100 µM | > 100 µM
46 | Nc1c(C(=O)Nc2ccccc2Cl)sc2nc3c(cc12)C(=O)CCC3 | > 100 µM | 1.62 µM
47 | COc1ccc(-c2cc(Nc3ccnc(N4CCOCC4)n3)on2)cc1 | 11.4 µM | 1.48 µM

System: UACC-62 melanoma
Assay: inhibition of tumour cell growth, NCI panel, 48 h

Row | Compound | TGI | GI50
48 | CCCCCCc1cc2cc(C(=O)Nc3ccc(F)cc3)c(=N)oc2cc1O | 8.7 µM | 
49 | CN1C(NNC(=O)c2cccnc2)=NS(=O)(=O)c2cc(Cl)ccc21 | > 100 µM | > 100 µM
50 | Nc1c(C(=O)Nc2ccccc2Cl)sc2nc3c(cc12)C(=O)CCC3 | > 100 µM | 0.789 µM
51 | COc1ccc(-c2cc(Nc3ccnc(N4CCOCC4)n3)on2)cc1 | 15.9 µM | 0.115 µM

System: UO-31 renal
Assay: inhibition of tumour cell growth, NCI panel, 48 h

Row | Compound | TGI | GI50
52 | CCCCCCc1cc2cc(C(=O)Nc3ccc(F)cc3)c(=N)oc2cc1O | 18.4 µM | 
53 | CN1C(NNC(=O)c2cccnc2)=NS(=O)(=O)c2cc(Cl)ccc21 | > 100 µM | > 100 µM
54 | Nc1c(C(=O)Nc2ccccc2Cl)sc2nc3c(cc12)C(=O)CCC3 | > 100 µM | > 100 µM
55 | COc1ccc(-c2cc(Nc3ccnc(N4CCOCC4)n3)on2)cc1 | 13.8 µM | 0.742 µM

Source: PubChem BioAssay (NCI)
